Results taken from patent US20110060037A1, “USE OF NPY Y5 RECEPTOR ANTAGONISTS FOR THE PREVENTION OF PSYCHO-STIMULANT AND OPIOID ABUSE” (priority 2008, published 2011).
Entries after “also recorded” stand apart in the source; their conditions may differ.

Tests used:
Y5 receptor = target: T1, Y5 receptor (Mus musculus, UniProt O70342); settings: cited from earlier work
T1 construct: close to 80% Y5 receptor occupancy in the mouse brain has also been observed between one and four hours after oral administration; host or cells: mouse brain (in vivo, after oral dosing)
T1 sequence (O70342 1-466): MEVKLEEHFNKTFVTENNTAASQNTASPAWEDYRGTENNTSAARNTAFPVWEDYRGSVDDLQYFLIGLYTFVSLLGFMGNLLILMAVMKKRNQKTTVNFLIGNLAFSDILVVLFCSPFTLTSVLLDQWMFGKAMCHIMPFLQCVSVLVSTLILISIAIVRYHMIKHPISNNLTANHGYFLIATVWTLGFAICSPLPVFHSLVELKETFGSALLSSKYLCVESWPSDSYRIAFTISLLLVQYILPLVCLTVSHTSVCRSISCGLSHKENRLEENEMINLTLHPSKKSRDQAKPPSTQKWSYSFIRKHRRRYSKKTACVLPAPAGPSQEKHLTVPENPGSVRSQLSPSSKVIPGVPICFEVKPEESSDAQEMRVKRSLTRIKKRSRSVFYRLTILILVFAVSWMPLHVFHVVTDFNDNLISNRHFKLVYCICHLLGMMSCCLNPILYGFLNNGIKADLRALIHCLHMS

rats = rats treated with L-152,804; cited from earlier work
[1] = 2 hrs after oral administration, 10 mg/kg; cited from earlier work
NMRI mice [2] = experiment: Acute self-administration: cocaine reinforcement; assay type: in vivo; settings: for nose-poking when saline was the i.v.-reinforcer (per se effect): L-152,804 10 mg/kg p.o. vs vehicle p.o.
NMRI mice [3] = experiment: Acute self-administration: food reinforcement; assay type: in vivo; settings: L-152,804 10 mg/kg p.o. two hours before; fasted overnight; P=0.573 vs. vehicle pre-treated ensure; FIG. 3
Method: The self-administration apparatus used was described above. The end of the PVC tubing, mentioned above, was secured on the outside of the self-administration box at the top of the nose-poke hole, thereby enabling the mice to reach the end of the PVC tube to acquire the content used as reinforcer (ensure protein drink, Abbott Laboratories, USA). The animals fasted overnight, with water still available.
Male NMRI mice received p.o. administration of L-152,804 (10 mg/kg) or corresponding vehicle. Two hours later, the animals were subjected to the self-administration procedure described above with access to PVC tubing containing ensure (nvehicle=11, nL-152,804=13) or without any drink content (=control, n=16).
Data were analyzed using SPSS (SPSS Inc, USA). In the self-administration experiments, two animals from the L-152,804 experiment were excluded. […] In the first and third self-administration experiments, data were analyzed using one-way analysis of variance (ANOVA) followed by post-hoc LSD t-test. […] Subsequently, after significant treatment effect of cocaine, data were analyzed using one-way ANOVA followed by post-hoc LSD t-tests. […]

CC1(C)CC(=O)C(C2C3=C(CC(C)(C)CC3=O)Oc3ccccc32)C(=O)C1 [L-152,804, 5,5-Dimethyl-2-(2,3,4,9-tetrahydro-3,3-dimethyl-1oxo-1H-xanthen-9-yl)-1,3-cyclohexanedione]
Y5 receptor occupancy in mouse brain (Y5 receptor; 2 h after oral administration of L-152,804): 80% | Y5 receptor occupancy in the mouse brain (Y5 receptor; between one and four hours after oral administration of L-152,804): ~80% | distance travelled (rats): no change in distance travelled | amount of L-152,804 in the rat brain [1]: significant amount | nose-poking when saline was the i.v.-reinforcer (per se effect) (NMRI mice [2]): no effect; also recorded: did not significantly decrease | nose-poking when saline was the i.v.-reinforcer (per se effect) (NMRI mice [2]; listed as L-152,802): No per se effect | self-administration of cocaine (nose-poking), significance of decrease (NMRI mice [2]; L-152,804 10 mg/kg p.o., cocaine 0.03 mg/kg/infusion, P=0.004): reaching significance | cocaine self-administration vs. saline i.v. in L-152,804-pretreated mice (NMRI mice [2]; L-152,804 10 mg/kg p.o., cocaine 0.01-1.0 mg/kg/infusion, post-hoc LSD t-tests): no significant doses vs. saline; also recorded: did not self-administer cocaine at a significantly higher rate | downward shift of the cocaine dose-response curve (efficacy of cocaine) (NMRI mice [2]; L-152,804 10 mg/kg p.o., vertex of fitted parabola, likelihood ratio test P<0.001): shifted down; also recorded: shifted significantly downward | shift of the cocaine dose-response curve to the right or left (potency of cocaine) (NMRI mice [2]; L-152,804 10 mg/kg p.o., vertex of fitted parabola, likelihood ratio test P=0.25): neither shifted significantly to the right nor to the left; also recorded: showed a tendency toward a rightward shift | self-administration of cocaine (nose-poking), significance of decrease (NMRI mice [2]; L-152,804 30 mg/kg p.o., cocaine 0.03 mg/kg/infusion, P=0.002): reaching significance | self-administration of cocaine (nose-poking) (NMRI mice [2]; cocaine 0.03 mg/kg/infusion i.v., L-152,804 3, 10 or 30 mg/kg p.o. two hours before, FIG. 1): significantly and dose-dependently decreased | nose-poking frequency of i.v.-administered cocaine at the other self-administered cocaine dose (NMRI mice [2]; second experiment, L-152,804 10 mg/kg p.o., cocaine 0.01 mg/kg/infusion as printed): showed a similar trend | nose-poking frequency of i.v.-administered cocaine at the peak dose of cocaine (NMRI mice [2]; second experiment, L-152,804 10 mg/kg p.o., cocaine 0.03 mg/kg/infusion, P=0.006, FIG. 2): significantly reduced | food (ensure protein drink) self-administration (NMRI mice [3]): had no effect; also recorded: did not alter
